Laboratory results taken from EPA's ToxRefDB 2.

Legend:
dog [1] = settings: Subchronic oral toxicity in nonrodent, beagle, Feed, dose end: 14 week, group: systemic, systemic / organ weight / liver / absolute + systemic / organ weight / liver / relative to body weight
rat [2] = settings: Subchronic oral toxicity in rodents, sprague dawley, Feed, dose end: 13 week, group: systemic, systemic / organ weight / uterus / relative to body weight
rat [3] = settings: Subchronic oral toxicity in rodents, fischer, Gavage/Intubation, dose end: 13 week, group: systemic
mouse [4] = settings: Subchronic oral toxicity in rodents, b6c3f1, Gavage/Intubation, dose end: 13 week, group: systemic
rat [5] = settings: Carcinogenicity, fischer, Oral, Gavage/Intubation, dose end: 103 week, group: systemic
dog [6] = settings: Sub-acute repeat dose toxicity, beagle, Oral, Gavage/Intubation, dose end: 1 month, group: systemic
rat [7] = settings: Sub-acute repeat dose toxicity; Oral; Gavage/Intubation; dose end: 10 day; group: systemic; systemic / in life observation / clinical signs / compulsive biting or licking + systemic / in life observation / clinical signs / …
dog [8] = settings: Sub-acute repeat dose toxicity, beagle, Oral, Gavage/Intubation, dose end: 10 day, group: systemic
mouse [9] = settings: Carcinogenicity, b6c3f1, Oral, Feed, dose end: 24 month, group: systemic
rat [10] = settings: Multigenerational reproductive toxicity study, wistar, Oral, Feed, dose end: 2 generation
rat [11] = settings: Combined chronic toxicity/carcinogenicity, wistar, Oral, Feed, dose end: 24 month, group: systemic
rabbit = settings: Prenatal developmental toxicity study, chinchilla, Oral, Gavage/Intubation, dose end: 18 GD
rat [12] = settings: Prenatal developmental toxicity study, other, Oral, Gavage/Intubation, dose end: 15 GD
dog [13] = settings: Chronic toxicity; beagle; Oral; Feed; dose end: 52 week; group: systemic; systemic / clinical chemistry / cholesterol / cholesterol + systemic / clinical chemistry / cytochrome p450, nos / cytochrome p450, nos
[14] = systemic / in life observation / clinical signs / defecation (diarrhea) + systemic / in life observation / clinical signs / lethargy + …
[15] = systemic / in life observation / mortality / mortality + systemic / pathology microscopic / kidney / degeneration + systemic / pathology …
[16] = systemic / pathology microscopic / kidney / hyperplasia + systemic / pathology microscopic / kidney / nephropathy
[17] = systemic / pathology microscopic / kidney / hyperplasia + systemic / pathology microscopic / kidney / nephropathy + systemic / in life …
[18] = systemic / in life observation / clinical signs / defecation (diarrhea) + systemic / in life observation / clinical signs / feces, …
[19] = systemic / in life observation / clinical signs / feces, discoloration
[20] = systemic / in life observation / body weight / body weight + systemic / in life observation / clinical signs / altered breathing rate + …
[21] = systemic / in life observation / clinical signs / salivation + systemic / in life observation / clinical signs / emesis
[22] = systemic / in life observation / body weight / body weight + systemic / in life observation / body weight / body weight gain + systemic / in…
[23] = group: offspring, systemic / in life observation / body weight / offspring (pup) weight
[24] = group: parental, systemic / in life observation / body weight / body weight gain
[25] = systemic / pathology microscopic / thyroid gland / mineralization
[26] = systemic / pathology microscopic / thyroid gland / mineralization + systemic / in life observation / body weight / body weight + systemic / …
[27] = group: developmental, developmental / developmental malformation / bone / absent + developmental / developmental malformation / bone / fused + developmental / …
[28] = group: maternal, systemic / in life observation / body weight / body weight gain
[29] = group: maternal, systemic / in life observation / body weight / body weight gain + reproductive / reproductive performance / aborted / aborted + reproductive…
[30] = group: developmental, developmental / developmental malformation / bone / wavy
[31] = group: maternal, systemic / in life observation / body weight / body weight gain + systemic / in life observation / food consumption / food consumption

**Q.** Which results are given for `CCN(CC)C(=O)C(C)Oc1cccc2ccccc12` (stereo not drawn) [Napropamide]?
**A.** LEL (dog [1]): 100 mg/kg/day; LOAEL (dog [1]): 100 mg/kg/day; NEL (dog [1]): 40 mg/kg/day; NOAEL (dog [1]): 40 mg/kg/day; LEL (rat [2]): 50 mg/kg/day; LOAEL (rat [2]): 50 mg/kg/day; NEL (rat [2]): 25 mg/kg/day; NOAEL (rat [2]): 25 mg/kg/day

**Q.** What does the source list for `Nc1cc([N+](=O)[O-])ccc1O` [2-Amino-4-nitrophenol]?
**A.** LOAEL (rat [3]; [14]): > 1000 mg/kg/day; NEL (rat [3]; [14]): 125 mg/kg/day; NOAEL (rat [3]; [14]): ≥ 1000 mg/kg/day; LEL (rat [3]; systemic / organ weight / liver / absolute): 250 mg/kg/day; LEL (mouse [4]; systemic / in life observation / mortality / mortality): 500 mg/kg/day; LOAEL (mouse [4]; [15]): > 1000 mg/kg/day; NEL (mouse [4]; [15]): 250 mg/kg/day; NOAEL (mouse [4]; [15]): ≥ 1000 mg/kg/day; LOAEL (rat [5]; [16]): 125 mg/kg/day; NOAEL (rat [5]; [16]): < 125 mg/kg/day; LEL (rat [5]; [17]): 125 mg/kg/day; NEL (rat [5]; [17]): < 125 mg/kg/day

**Q.** How did the LOAEL (dog [6]; [18]) turn out when `COc1ccc(C(=O)Nc2nc3ccccc3c(NCc3ccccc3)c2C#N)cc1` was run?
**A.** Its LOAEL is 1500 mg/kg/day.

**Q.** What about the NOAEL (dog [6]; [18]) of the same compound?
**A.** Its NOAEL is 750 mg/kg/day.

**Q.** What about the LEL (dog [6]; [19]) of the same compound?
**A.** Its LEL is 300 mg/kg/day.

**Q.** And the NEL (dog [6]; [19])?
**A.** The NEL was less than 300 mg/kg/day.

**Q.** How did the LEL (rat [7]) turn out when `CC(N)c1cc(F)ccc1Oc1ccc(Cl)c(Cl)c1` (stereo not drawn) was run?
**A.** Its LEL is 3 mg/kg/day.

**Q.** What about the LOAEL (rat [7]) of the same compound?
**A.** The LOAEL was greater than 150 mg/kg/day.

**Q.** What about the NEL (rat [7]) of the same compound?
**A.** Its NEL is less than 3 mg/kg/day.

**Q.** What about the NOAEL (rat [7]) of the same compound?
**A.** Its NOAEL is no less than 150 mg/kg/day.

**Q.** And the LOAEL (dog [8]; [20])?
**A.** The LOAEL was greater than 100 mg/kg/day.

**Q.** What about the NOAEL (dog [8]; [20]) of the same compound?
**A.** Its NOAEL is no less than 100 mg/kg/day.

**Q.** And the LEL (dog [8]; [21])?
**A.** Its LEL is 3 mg/kg/day.

**Q.** What about the NEL (dog [8]; [21]) of the same compound?
**A.** Its NEL is less than 3 mg/kg/day.

**Q.** `O=[N+]([O-])/N=C1\NCCN1Cc1ccc(Cl)nc1` [Imidacloprid] was tested. Which LOAEL (mouse [9]; [22]) did it give?
**A.** Its LOAEL is 414 mg/kg/day.

**Q.** And the NEL (mouse [9]; [22])?
**A.** Its NEL is 66 mg/kg/day.

**Q.** And the NOAEL (mouse [9]; [22])?
**A.** The NOAEL was 208 mg/kg/day.

**Q.** And the LEL (mouse [9]; systemic / in life observation / body weight / body weight gain)?
**A.** The LEL was 208 mg/kg/day.

**Q.** And the LEL (rat [10]; [23])?
**A.** Its LEL is 47.3 mg/kg/day.

**Q.** And the LOAEL (rat [10]; [23])?
**A.** The LOAEL was 47.3 mg/kg/day.

**Q.** And the NEL (rat [10]; [23])?
**A.** The NEL was 16.5 mg/kg/day.

**Q.** And the NOAEL (rat [10]; [23])?
**A.** Its NOAEL is 16.5 mg/kg/day.

**Q.** And the LEL (rat [10]; [24])?
**A.** The LEL was 52.3 mg/kg/day.

**Q.** And the LOAEL (rat [10]; [24])?
**A.** Its LOAEL is 52.3 mg/kg/day.

**Q.** And the NEL (rat [10]; [24])?
**A.** Its NEL is 18.9 mg/kg/day.

**Q.** And the NOAEL (rat [10]; [24])?
**A.** Its NOAEL is 18.9 mg/kg/day.

**Q.** And the LEL (rat [11]; [25])?
**A.** Its LEL is 16.9 mg/kg/day.

**Q.** What about the LOAEL (rat [11]; [25]) of the same compound?
**A.** The LOAEL was 16.9 mg/kg/day.

**Q.** And the NEL (rat [11]; [26])?
**A.** The NEL was 5.7 mg/kg/day.

**Q.** What about the NOAEL (rat [11]; [26]) of the same compound?
**A.** Its NOAEL is 5.7 mg/kg/day.

**Q.** What about the LEL (rabbit; [27]) of the same compound?
**A.** The LEL was 72 mg/kg/day.

**Q.** And the LOAEL (rabbit; [27])?
**A.** The LOAEL was 72 mg/kg/day.

**Q.** What about the NEL (rabbit; [27]) of the same compound?
**A.** Its NEL is 24 mg/kg/day.

**Q.** And the NOAEL (rabbit; [27])?
**A.** Its NOAEL is 24 mg/kg/day.

**Q.** And the LEL (rabbit; [28])?
**A.** Its LEL is 24 mg/kg/day.

**Q.** And the NEL (rabbit; [29])?
**A.** Its NEL is 8 mg/kg/day.

**Q.** What about the NOAEL (rabbit; [29]) of the same compound?
**A.** Its NOAEL is 24 mg/kg/day.

**Q.** And the LOAEL (rabbit; group: maternal, systemic / in life observation / body weight / body weight gain + reproductive / reproductive performance / postimplantation loss / …)?
**A.** Its LOAEL is 72 mg/kg/day.

**Q.** And the LEL (rat [12]; [30])?
**A.** Its LEL is 100 mg/kg/day.

**Q.** What about the LOAEL (rat [12]; [30]) of the same compound?
**A.** The LOAEL was 100 mg/kg/day.

**Q.** And the NEL (rat [12]; [30])?
**A.** Its NEL is 30 mg/kg/day.

**Q.** What about the NOAEL (rat [12]; [30]) of the same compound?
**A.** The NOAEL was 30 mg/kg/day.

**Q.** And the LEL (rat [12]; [28])?
**A.** The LEL was 30 mg/kg/day.

**Q.** And the LOAEL (rat [12]; [28])?
**A.** Its LOAEL is 30 mg/kg/day.

**Q.** And the NEL (rat [12]; [31])?
**A.** The NEL was 10 mg/kg/day.

**Q.** And the NOAEL (rat [12]; [31])?
**A.** The NOAEL was 10 mg/kg/day.

**Q.** What about the LEL (dog [13]) of the same compound?
**A.** Its LEL is 72 mg/kg/day.

**Q.** And the LOAEL (dog [13])?
**A.** The LOAEL was greater than 72 mg/kg/day.

**Q.** And the NEL (dog [13])?
**A.** The NEL was 15 mg/kg/day.

**Q.** And the NOAEL (dog [13])?
**A.** Its NOAEL is no less than 72 mg/kg/day.
